Experimental data reported in the supplement of paper PMC10307832.

How the values were obtained:
Assay in all cases: relative viability (nuclei count vs DMSO), 5 days (fraction); higher = more cells survive
NCI-H2228 = system: NCI-H2228
In short: (§1)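 Relative viability divides the nuclei count in treated wells by that in vehicle wells. Lung cancer cell lines were seeded in 1536-well plates, dosed by pin tool the next day, and fixed and stained after 5 days in one step with final 0.05% Triton X-100, 1% formaldehyde and 1 ug/ml Hoechst. Dosing was a single drug or a fixed anchor-drug dose plus five library-drug doses (not always all listed) in √10 steps, and values are medians of duplicate plates imaged at 4×.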

SW 1573 = system: SW 1573
In short: as §1

HOP-62 = system: HOP-62
In short: as §1

NCI-H2126 = system: NCI-H2126
In short: as §1

NCI-H1792 = system: NCI-H1792
In short: as §1

LOU-NH91 = system: LOU-NH91
In short: as §1

NCI-H647 = system: NCI-H647
In short: as §1

NCI-H1975 = system: NCI-H1975
In short: as §1

LC-2-ad = system: LC-2-ad
In short: as §1

NCI-H460 = system: NCI-H460
In short: as §1

SK-LU-1 = system: SK-LU-1
In short: as §1

NCI-H1734 = system: NCI-H1734
In short: as §1

PC-3 [JPC-3] = system: PC-3 [JPC-3]
In short: as §1

HCC-15 = system: HCC-15
In short: as §1

A-427 = system: A-427
In short: as §1

HCC-78 = system: HCC-78
In short: as §1

NCI-H1915 = system: NCI-H1915
In short: as §1

NCI-H1755 = system: NCI-H1755
In short: as §1

RERF-LC-KJ = system: RERF-LC-KJ
In short: as §1

NCI-H358 = system: NCI-H358
In short: as §1

LXF-289 = system: LXF-289
In short: as §1

NCI-H2347 = system: NCI-H2347
In short: as §1

C=C1C(=O)O[C@@H](CCCCCCCC)[C@@H]1C(=O)O [C-75] + CS(=O)(=O)CCNCc1ccc(-c2ccc3ncnc(Nc4ccc(OCc5cccc(F)c5)c(Cl)c4)c3c2)o1 [Lapatinib] (partner 2 µM)
relative viability (NCI-H2228; first compound 0.08 µM): 1.11
relative viability (NCI-H2228; first compound 0.253 µM): 1.19
relative viability (NCI-H2228; first compound 0.8 µM): 1.1
relative viability (NCI-H2228; first compound 2.53 µM): 0.903
relative viability (NCI-H2228; first compound 8 µM): 1.03
relative viability (SW 1573; first compound 0.08 µM): 1.14
relative viability (SW 1573; first compound 0.253 µM): 1.14
relative viability (SW 1573; first compound 0.8 µM): 1.15
relative viability (SW 1573; first compound 2.53 µM): 1.04
relative viability (SW 1573; first compound 8 µM): 0.792
relative viability (HOP-62; first compound 0.08 µM): 1.07
relative viability (HOP-62; first compound 0.253 µM): 1.09
relative viability (HOP-62; first compound 0.8 µM): 0.955
relative viability (HOP-62; first compound 2.53 µM): 0.713
relative viability (HOP-62; first compound 8 µM): 0.817
relative viability (NCI-H2126; first compound 0.08 µM): 0.774
relative viability (NCI-H2126; first compound 0.253 µM): 0.914
relative viability (NCI-H2126; first compound 0.8 µM): 0.728
relative viability (NCI-H2126; first compound 2.53 µM): 0.62
relative viability (NCI-H2126; first compound 8 µM): 0.758
relative viability (NCI-H1792; first compound 0.08 µM): 0.865
relative viability (NCI-H1792; first compound 0.253 µM): 0.835
relative viability (NCI-H1792; first compound 0.8 µM): 0.675
relative viability (NCI-H1792; first compound 2.53 µM): 0.68
relative viability (NCI-H1792; first compound 8 µM): 0.798
relative viability (LOU-NH91; first compound 0.08 µM): 0.821
relative viability (LOU-NH91; first compound 0.253 µM): 0.833
relative viability (LOU-NH91; first compound 0.8 µM): 0.657
relative viability (LOU-NH91; first compound 2.53 µM): 0.533
relative viability (LOU-NH91; first compound 8 µM): 0.716
relative viability (NCI-H647; first compound 0.08 µM): 0.896
relative viability (NCI-H647; first compound 0.253 µM): 1.38
relative viability (NCI-H647; first compound 2.53 µM): 0.791
relative viability (NCI-H647; first compound 8 µM): 0.584
relative viability (NCI-H1975; first compound 0.08 µM): 0.839
relative viability (NCI-H1975; first compound 0.253 µM): 1.04
relative viability (NCI-H1975; first compound 0.8 µM): 0.76
relative viability (NCI-H1975; first compound 2.53 µM): 0.879
relative viability (NCI-H1975; first compound 8 µM): 0.895
relative viability (LC-2-ad; first compound 0.08 µM): 0.982
relative viability (LC-2-ad; first compound 0.253 µM): 0.919
relative viability (LC-2-ad; first compound 0.8 µM): 0.898
relative viability (LC-2-ad; first compound 8 µM): 1.01
relative viability (NCI-H460; first compound 0.08 µM): 0.951
relative viability (NCI-H460; first compound 0.253 µM): 1.38
relative viability (NCI-H460; first compound 0.8 µM): 0.847
relative viability (NCI-H460; first compound 8 µM): 0.884
relative viability (SK-LU-1; first compound 0.08 µM): 0.795
relative viability (SK-LU-1; first compound 0.253 µM): 0.91
relative viability (SK-LU-1; first compound 0.8 µM): 0.843
relative viability (SK-LU-1; first compound 2.53 µM): 0.795
relative viability (SK-LU-1; first compound 8 µM): 0.577
relative viability (NCI-H1734; first compound 0.08 µM): 0.981
relative viability (NCI-H1734; first compound 0.253 µM): 1.13
relative viability (NCI-H1734; first compound 0.8 µM): 1.02
relative viability (NCI-H1734; first compound 2.53 µM): 0.362
relative viability (NCI-H1734; first compound 8 µM): 0.908
relative viability (PC-3 [JPC-3]; first compound 0.08 µM): 0.449
relative viability (PC-3 [JPC-3]; first compound 0.253 µM): 0.528
relative viability (PC-3 [JPC-3]; first compound 0.8 µM): 0.405
relative viability (PC-3 [JPC-3]; first compound 2.53 µM): 0.485
relative viability (PC-3 [JPC-3]; first compound 8 µM): 0.478
relative viability (HCC-15; first compound 0.08 µM): 0.838
relative viability (HCC-15; first compound 0.253 µM): 0.808
relative viability (HCC-15; first compound 0.8 µM): 0.878
relative viability (HCC-15; first compound 2.53 µM): 0.839
relative viability (HCC-15; first compound 8 µM): 0.894
relative viability (A-427; first compound 0.08 µM): 1.01
relative viability (A-427; first compound 0.253 µM): 1.07
relative viability (A-427; first compound 0.8 µM): 1.02
relative viability (A-427; first compound 2.53 µM): 0.997
relative viability (A-427; first compound 8 µM): 1.01
relative viability (HCC-78; first compound 0.08 µM): 1.05
relative viability (HCC-78; first compound 0.253 µM): 0.6
relative viability (HCC-78; first compound 0.8 µM): 0.464
relative viability (HCC-78; first compound 2.53 µM): 0.348
relative viability (HCC-78; first compound 8 µM): 0.756
relative viability (NCI-H1915; first compound 0.08 µM): 0.952
relative viability (NCI-H1915; first compound 0.253 µM): 0.945
relative viability (NCI-H1915; first compound 0.8 µM): 0.89
relative viability (NCI-H1915; first compound 2.53 µM): 0.917
relative viability (NCI-H1915; first compound 8 µM): 0.909
relative viability (NCI-H1755; first compound 0.08 µM): 1.01
relative viability (NCI-H1755; first compound 0.253 µM): 0.946
relative viability (NCI-H1755; first compound 0.8 µM): 0.958
relative viability (NCI-H1755; first compound 2.53 µM): 0.743
relative viability (NCI-H1755; first compound 8 µM): 1.06
relative viability (RERF-LC-KJ; first compound 0.08 µM): 0.826
relative viability (RERF-LC-KJ; first compound 0.253 µM): 0.866
relative viability (RERF-LC-KJ; first compound 0.8 µM): 0.863
relative viability (RERF-LC-KJ; first compound 2.53 µM): 0.872
relative viability (RERF-LC-KJ; first compound 8 µM): 0.966
relative viability (NCI-H358; first compound 0.08 µM): 0.588
relative viability (NCI-H358; first compound 0.253 µM): 0.434
relative viability (NCI-H358; first compound 0.8 µM): 0.383
relative viability (NCI-H358; first compound 2.53 µM): 0.458
relative viability (NCI-H358; first compound 8 µM): 0.599
relative viability (LXF-289; first compound 0.08 µM): 0.842
relative viability (LXF-289; first compound 0.253 µM): 0.872
relative viability (LXF-289; first compound 0.8 µM): 0.895
relative viability (LXF-289; first compound 2.53 µM): 0.925
relative viability (LXF-289; first compound 8 µM): 0.908
relative viability (NCI-H2347; first compound 0.08 µM): 0.862
relative viability (NCI-H2347; first compound 0.253 µM): 0.94
relative viability (NCI-H2347; first compound 0.8 µM): 0.965
relative viability (NCI-H2347; first compound 2.53 µM): 0.828
relative viability (NCI-H2347; first compound 8 µM): 1.02
